Active and inactive are the calls of the source. No cut-off for these calls is given here.
Assays:
Plasmodium falciparum [1] = assay: Antiplasmodial activity against chloroquine-resistant Plasmodium falciparum K1 after 48 hrs using Hema 3 staining by microscopic analysis; type: functional, organism-based; conditions: K1, 48 h
Plasmodium falciparum [2] = assay: Antiplasmodial activity against chloroquine-sensitive Plasmodium falciparum 3D7A assessed as death of all detectable parasites at 4 days dosage of 50 to 500 uM using Hema 3 staining by microscopic analysis; type: functional, organism-based
Plasmodium falciparum [3] = assay: Antiplasmodial activity against chloroquine-sensitive Plasmodium falciparum 3D7A assessed as parasitaemia level at two days dosage of 5 uM measured on day 9 using Hema 3 staining by microscopic analysis; type: functional
Plasmodium falciparum [4] = assay: Antiplasmodial activity against chloroquine-sensitive Plasmodium falciparum 3D7A assessed as undetectable parasitaemia level at 4 days dosage of 5 uM measured on day 3 using Hema 3 staining by microscopic analysis; type: functional, organism-based
Plasmodium falciparum [5] = assay: Antiplasmodial activity against chloroquine-sensitive Plasmodium falciparum 3D7A assessed as death of all detectable parasites at two days dosage of 50 to 500 uM using Hema 3 staining by microscopic analysis; type: functional, organism-based
Plasmodium falciparum [6] = assay: Antiplasmodial activity against chloroquine-sensitive Plasmodium falciparum 3D7 after 48 hrs using Hema 3 staining by microscopic analysis; type: functional, organism-based; conditions: 3D7, 48 h
Plasmodium falciparum [7] = assay: Antiplasmodial activity against chloroquine-sensitive Plasmodium falciparum 3D7A assessed as parasitaemia level at two days dosage of 5 uM measured on day 2 using Hema 3 staining by microscopic analysis; type: functional
[8] = Toxicity in human mononuclear leukocytes assessed as decrease in cell health at 5 to 500 uM after 5 days by microscopic analysis; type: cell-based; conditions: 120 h
Plasmodium falciparum [9] = assay: Antiplasmodial activity against chloroquine-sensitive Plasmodium falciparum 3D7A assessed as parasitaemia level at 4 days dosage of 5 uM using Hema 3 staining by microscopic analysis; type: functional
Plasmodium falciparum [10] = assay: Antiplasmodial activity against chloroquine-sensitive Plasmodium falciparum 3D7A assessed as parasitaemia level at 4 days dosage of 5 uM measured on day 9 using Hema 3 staining by microscopic analysis; type: functional
Plasmodium falciparum [11] = assay: Antiplasmodial activity against chloroquine-sensitive Plasmodium falciparum 3D7A assessed as death of all detectable parasites at two days dosage of 0.05 uM using Hema 3 staining by microscopic analysis; type: functional, organism-based
Plasmodium falciparum [12] = assay: Antiplasmodial activity against chloroquine-sensitive Plasmodium falciparum 3D7A assessed as death of all detectable parasites at 4 days dosage of 0.5 to 500 uM using Hema 3 staining by microscopic analysis; type: functional, organism-based
Plasmodium falciparum [13] = assay: Antiplasmodial activity against chloroquine-sensitive Plasmodium falciparum 3D7A assessed as death of all detectable parasites at 4 days dosage of 0.05 uM using Hema 3 staining by microscopic analysis; type: functional, organism-based
Plasmodium falciparum [14] = assay: Antiplasmodial activity against chloroquine-sensitive Plasmodium falciparum 3D7A assessed as death of all detectable parasites at two days dosage of 0.5 to 500 uM using Hema 3 staining by microscopic analysis; type: functional, organism-based
Plasmodium falciparum [15] = assay: Antiplasmodial activity against chloroquine-sensitive Plasmodium falciparum 3D7A assessed as assessed as parasitaemia level at 4 days dosage of 500 uM using Hema 3 staining by microscopic analysis; type: functional
Plasmodium falciparum [16] = assay: Antiplasmodial activity against chloroquine-sensitive Plasmodium falciparum 3D7A assessed as assessed as parasitaemia level at two days dosage of 500 uM using Hema 3 staining by microscopic analysis; type: functional

Compound	IC50 (Plasmodium falciparum [1]) [nM]	Activity (Plasmodium falciparum [2])	Activity (Plasmodium falciparum [5])	IC50 (Plasmodium falciparum [6]) [nM]	Activity [8]	further results
O=C1C(O)=C([C@H]2CC[C@H](c3ccc(Cl)cc3)CC2)C(=O)c2ccccc21 [ATOVAQUONE]	17.7					
Clc1ccc2c(Nc3ccc(C4=NCCO4)cc3)ccnc2c1	846	Active	Active	192	Toxic	Activity (Plasmodium falciparum [3]): 5%; Activity (Plasmodium falciparum [4]): Active; Activity (Plasmodium falciparum [7]): 0.25%
Clc1ccc2c(Nc3cccc(C4=NCCO4)c3)ccnc2c1	895	Active	Active	91	Toxic	Activity (Plasmodium falciparum [9]): 0%; Activity (Plasmodium falciparum [10]): 5%
CCN(CC)CCCC(C)Nc1ccnc2cc(Cl)ccc12 (stereo not given) [CHLOROQUINE]					Toxic	Activity (Plasmodium falciparum [11]): inactive; Activity (Plasmodium falciparum [12]): Active; Activity (Plasmodium falciparum [13]): inactive; Activity (Plasmodium falciparum [14]): Active
CC1(C)COC(c2ccc(Nc3ccnc4cc(Cl)ccc34)cc2)=N1	> 1000			308		Activity (Plasmodium falciparum [15]): 0%; Activity (Plasmodium falciparum [16]): 0%
CC1(C)COC(c2cccc(Nc3ccnc4cc(Cl)ccc34)c2)=N1	711	Active	Active	83	Toxic	

Reference: ChEMBL document CHEMBL1806493, “Synthesis and biological activities of 4-N-(anilinyl-n-[oxazolyl])-7-chloroquinolines (n=3' or 4') against Plasmodium falciparum in in vitro models” (Bioorg Med Chem Lett, 2011)
